The text below walks through data of patent US10259815B2, “Gabaergic ligands and their uses” (UWM Research Foundation, Inc., priority 2015, dated 2019).

Series [1] deals with Male CD-1 mice. The conditions noted are these: previously shown; cited from earlier work.
The test system of series [2] is Male Sprague-Dawley rats. The series can be described thus: scMET-induced seizure protection, rats. It counts as in vivo. The following applies: pentylenetetrazole 35 mg/kg. As for the experimental part: A 35 mg/kg subcutaneous dose of pentylenetetrazole was given and the percent outcome of seizure was recorded. Results were analyzed using ANOVA (Dunnett's test: *P<0.05).
Test subjects were given a test compound, followed by a 35 mg/kg dose of MET and observed for convulsions (FIG. 7).
(§1) Results were analyzed using ANOVA (Dunnett's test: *P<0.05).

The test system of series [3] is Male Sprague-Dawley rats. The conditions noted are these: previously shown; species not stated; cited from earlier work.
Another series concerns Sprague Dawley male rats. Nature of the series: Mechanical hyperalgesia (von Frey) in CFA-induced inflammatory pain rat model. The format is in vivo. The conditions noted are these: cumulative i.p. dosing, 3 days after CFA. As for the experimental part:
Raw data (paw withdrawal threshold, expressed in g of von Frey filament) was converted to a maximal possible effect value according the following equation: % MPE=[(test threshold(g)−control threshold(g)/(pre-CFA threshold−control threshold)]×100.
Complete Freund's adjuvant (CFA) contains Mycobacterium butyricum, inducing inflammation and an increase in paw thickness. 0.1 mL of CFA was injected in the right hind paw of Sprague Dawley male rats under isoflurane anaesthesia.
Mechanical hyperalgesia. Mechanical hyperalgesia was measured 3 days after CFA treatment. Rats (n=6) were placed in elevated boxes with a mesh floor. Von Frey filaments (expressed in g) were applied perpendicularly to the hindpaws, starting with the lowest filament (1.4 g) then increased until hindpaw withdrawal was observed. After each measurement, rats received the next dose of drug (every 20 min) until the maximum threshold (26 g) was observed. For the antagonist study, rats were pretreated with the benzodiazepine site antagonist flumazenil (10 min) and then received the next dose of drug (every 20 min) until the pre-CFA threshold was observed.
Drugs. The following drugs were used: HZ166, KRM-II-18B, and KRM-II-81, and were dissolved in a mixture containing 20% Dimethyl sulfoxide (DMSO), 10% Emulphor-620 (Rhodia Inc.), and 70% of 0.9% saline. Flumazenil (purchased from Cayman Chemical Company, MI) was dissolved in a mixture containing 10% ethanol, 40% propylene glycol, and 50% sterile water. Midazolam (Akorn, Inc.) was dissolved in 0.9% saline. Doses were expressed as the weight of the drug in milligrams per kilogram of body weight and drugs were administered intraperitoneally.

The nature of series [4]: Liver microsomal stability, rat. The following applies: 37° C., 4 μM compound, 30 minutes. It counts as in vitro ADME. As for the experimental part:
(§2) In vitro metabolism studies were done in mouse, rat, human, and dogs cells (TABLE 2).
(§3) In vitro liver microsomal studies were completed to measure the stability of the compounds against degradation in various species' liver microsomes.
(§4) Compound was incubated in hepatic microsomes over a 30-minute incubation period at 37° C. Incubations both with and without NADPH (2 mM) were performed in a 96-well plate format. The reaction was initiated with the addition of substrate and was terminated by protein precipitation. All incubations were performed using a final substrate concentration of 4 μM in 50 mM sodium phosphate buffer, pH 7.4. The final organic solvent content was 0.5% acetonitrile and 0.02% DMSO. The amount of enzyme present was fixed at 1.11 mg/mL protein irrespective of the species of microsomes used. Samples were analyzed by LC/MS-MS to determine the percent loss in the NAPDH incubations relative to the NADPH free incubations.
Background: Liver microsomes are a subcellular fraction often used to study metabolism.

Series [5] can be described thus: Liver microsomal stability, mouse. The format is in vitro ADME. The conditions noted are these: 37° C., 4 μM compound, 30 minutes. The protocol: as §2, §3, §4
Series [6] can be described thus: Liver microsomal stability, human. The following applies: 37° C., 4 μM compound, 30 minutes. The format is in vitro ADME. The protocol:
as §2, §3, §4

Series [7] relates to Male Sprague-Dawley rats. The following applies: has been shown; cited from earlier work.
Series [8] is described as follows: Pharmacokinetics after 10 mg/kg P.O. dose, mice. It counts as in vivo. The conditions noted are these: mouse, blood, po. An excerpt: Although these are different species, the numbers can still be compared.
Series [9] can be described thus: Liver microsomal stability, dog. It counts as in vitro ADME. The conditions noted are these: 37° C., 4 μM compound, 30 minutes. As for the experimental part: as §2, §3, §4
For series [10], the system named is Male Sprague-Dawley rats. Nature of the series: PTZ-induced seizure threshold. The following applies: test compound 3 to 60 mg/kg, diazepam 0.1 to 1 mg/kg i.p. The format is in vivo. The protocol:
as §1
After a pretreatment of test compound, MET was intravenously administered to a test subject until a convulsions were observed.
Each animal was used only once and was euthanized post testing. Results were analyzed using ANOVA (Dunnett's test: *P<0.05).

For series [11], the system named is Male Sprague-Dawley rats. The series can be described thus: Inverted screen test (muscle relaxation). It counts as in vivo. The conditions noted are these: for muscle relaxation / motor impairment in inverted screen: i.p. 30 minutes prior, diazepam 3, 10, 30 mg/kg, KRM-II-81 10, 30, 60 mg/kg, HZ-166 30 mg/kg. As for the experimental part: as §1
The inverted screen test is used to measure whether or not a test compound induces muscle relaxation. When a test subject is placed on a wire screen which is then inverted, the reaction is to climb to the opposite side so they are no longer hanging upside down. If a compound promotes muscle relaxation, the test subjects will either fall off, or hang onto the screen without being able to climb to the opposite side.
Rats were placed onto the top of a wire screen, which was then inverted so that the rats were hanging upside down. […] Results were analyzed using ANOVA (Dunnett's test: *P<0.05).

A further series relates to rhesus monkeys. The conditions noted are these: previously shown; cited from earlier work.
Series [12] deals with Male CD-1 mice. The series can be described thus: Maximal electroshock (MES)-induced convulsion protection. The following applies: i.p. 30 minutes prior to test. It counts as in vivo. As for the experimental part: Male CD-1 mice (n=10) were dosed i.p. 30 minutes prior to being tested. Results were analyzed using ANOVA (Dunnett's test versus vehicle: *P<0.05).
The maximal electroshock (MES) assay is designed to determine how well a test compound can prevent seizures induced by applying a voltage stimuli to a mouse.
Mice were subjected to electrical induced tonic seizures and examined for anticonvulsant effects 30 minutes after treatment. Mice were then given a 7 mA electroshock using a Wahlquist Model H for 0.2 seconds and observed for the presence or absence of seizure activity. Each mouse is tested only once and euthanized immediately following the test.

In another series the test system is Male NIH Swiss mice. The following applies: previously shown; cited from earlier work.
For the next series, the target named is GABAA/α1 receptors (Homo sapiens, UniProt P14867+P18507). The following applies: as disclosed in Huang, et al., J. Med. Chem. 2000; cited from earlier work.
The next series concerns the target GABAA/α3 (Homo sapiens, UniProt P18507+P34903). The conditions noted are these: as disclosed in Huang, et al., J. Med. Chem. 2000; cited from earlier work.
Another series concerns the target GABAA/α5 receptors (Homo sapiens, UniProt P18507+P31644). The following applies: as disclosed in Huang, et al., J. Med. Chem. 2000; cited from earlier work.
A further series addresses GABAA/α2 (Homo sapiens, UniProt P18507+P47869). The conditions noted are these: as disclosed in Huang, et al., J. Med. Chem. 2000; cited from earlier work.

The term Tmax denotes the time at which the peak concentration occurs. For orientation: Ki means the equilibrium dissociation constant of an inhibitor or competing ligand from its target.

GABAA/α2, sequence (P47869 29-451): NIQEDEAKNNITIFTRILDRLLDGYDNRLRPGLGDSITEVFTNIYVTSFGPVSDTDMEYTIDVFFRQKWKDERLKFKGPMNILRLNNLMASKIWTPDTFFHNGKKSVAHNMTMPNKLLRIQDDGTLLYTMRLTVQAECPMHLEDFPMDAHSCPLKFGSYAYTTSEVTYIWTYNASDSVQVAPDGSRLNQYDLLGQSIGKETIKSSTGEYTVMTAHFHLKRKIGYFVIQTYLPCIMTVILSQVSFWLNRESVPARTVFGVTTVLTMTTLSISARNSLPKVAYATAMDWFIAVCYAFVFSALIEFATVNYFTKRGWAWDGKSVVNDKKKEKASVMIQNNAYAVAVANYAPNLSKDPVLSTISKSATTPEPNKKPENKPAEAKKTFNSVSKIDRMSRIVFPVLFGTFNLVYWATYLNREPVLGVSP
GABAA/α2, sequence (P28472 26-473 partner): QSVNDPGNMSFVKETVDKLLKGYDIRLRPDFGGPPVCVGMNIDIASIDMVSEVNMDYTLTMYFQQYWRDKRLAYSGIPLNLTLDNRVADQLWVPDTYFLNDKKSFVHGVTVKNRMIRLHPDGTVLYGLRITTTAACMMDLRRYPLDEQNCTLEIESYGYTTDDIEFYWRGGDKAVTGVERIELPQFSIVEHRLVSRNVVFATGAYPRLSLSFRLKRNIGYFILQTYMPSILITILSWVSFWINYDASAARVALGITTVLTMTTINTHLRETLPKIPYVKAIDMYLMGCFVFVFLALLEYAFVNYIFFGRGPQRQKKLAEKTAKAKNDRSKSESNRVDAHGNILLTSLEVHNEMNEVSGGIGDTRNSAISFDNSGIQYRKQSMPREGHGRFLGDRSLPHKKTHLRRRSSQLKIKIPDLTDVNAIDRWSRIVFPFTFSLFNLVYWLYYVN
GABAA/α2, sequence (P18507 40-475): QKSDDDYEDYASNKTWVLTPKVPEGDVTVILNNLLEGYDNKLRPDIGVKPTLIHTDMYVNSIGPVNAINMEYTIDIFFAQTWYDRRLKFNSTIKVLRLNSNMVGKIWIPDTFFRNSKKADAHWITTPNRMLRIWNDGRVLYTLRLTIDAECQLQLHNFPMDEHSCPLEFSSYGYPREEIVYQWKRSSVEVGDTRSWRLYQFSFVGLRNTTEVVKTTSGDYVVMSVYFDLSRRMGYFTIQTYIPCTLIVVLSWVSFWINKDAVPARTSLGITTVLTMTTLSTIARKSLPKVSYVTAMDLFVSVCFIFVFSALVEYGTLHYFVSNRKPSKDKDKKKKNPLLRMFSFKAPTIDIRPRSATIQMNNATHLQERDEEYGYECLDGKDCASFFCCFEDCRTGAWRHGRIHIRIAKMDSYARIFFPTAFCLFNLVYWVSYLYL
GABAA/α1 receptors, sequence (P14867 28-456): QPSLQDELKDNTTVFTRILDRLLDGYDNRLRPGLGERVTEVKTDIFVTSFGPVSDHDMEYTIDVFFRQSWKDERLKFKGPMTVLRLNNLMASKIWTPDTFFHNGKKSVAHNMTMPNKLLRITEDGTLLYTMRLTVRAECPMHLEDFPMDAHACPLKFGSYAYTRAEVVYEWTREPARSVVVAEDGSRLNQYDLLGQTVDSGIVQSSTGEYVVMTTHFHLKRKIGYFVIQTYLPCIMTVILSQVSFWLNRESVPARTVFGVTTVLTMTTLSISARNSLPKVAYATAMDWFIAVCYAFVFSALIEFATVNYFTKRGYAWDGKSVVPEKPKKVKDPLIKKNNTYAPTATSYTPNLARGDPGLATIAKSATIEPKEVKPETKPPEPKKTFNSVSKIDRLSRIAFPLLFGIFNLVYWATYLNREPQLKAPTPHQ
GABAA/α1 receptors, sequence (P28472 26-473 partner): as the sequence (P28472 26-473 partner) above
GABAA/α1 receptors, sequence (P18507 40-475): as the sequence (P18507 40-475) above
GABAA/α3, sequence (P34903 29-492): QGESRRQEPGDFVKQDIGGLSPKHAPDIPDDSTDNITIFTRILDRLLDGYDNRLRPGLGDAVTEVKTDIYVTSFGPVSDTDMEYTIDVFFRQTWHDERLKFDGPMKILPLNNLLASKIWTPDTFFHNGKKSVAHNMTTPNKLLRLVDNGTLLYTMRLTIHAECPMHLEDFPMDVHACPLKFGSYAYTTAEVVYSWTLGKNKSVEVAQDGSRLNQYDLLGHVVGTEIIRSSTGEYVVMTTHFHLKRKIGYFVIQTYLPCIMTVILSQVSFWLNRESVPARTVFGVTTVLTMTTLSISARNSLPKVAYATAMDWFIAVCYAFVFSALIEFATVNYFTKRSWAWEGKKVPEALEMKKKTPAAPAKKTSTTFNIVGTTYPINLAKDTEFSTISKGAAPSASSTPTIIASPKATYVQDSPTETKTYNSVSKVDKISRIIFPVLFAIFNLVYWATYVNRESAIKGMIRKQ
GABAA/α3, sequence (P28472 26-473 partner): as the sequence (P28472 26-473 partner) above
GABAA/α3, sequence (P18507 40-475): as the sequence (P18507 40-475) above
GABAA/α5 receptors, sequence (P31644 32-462): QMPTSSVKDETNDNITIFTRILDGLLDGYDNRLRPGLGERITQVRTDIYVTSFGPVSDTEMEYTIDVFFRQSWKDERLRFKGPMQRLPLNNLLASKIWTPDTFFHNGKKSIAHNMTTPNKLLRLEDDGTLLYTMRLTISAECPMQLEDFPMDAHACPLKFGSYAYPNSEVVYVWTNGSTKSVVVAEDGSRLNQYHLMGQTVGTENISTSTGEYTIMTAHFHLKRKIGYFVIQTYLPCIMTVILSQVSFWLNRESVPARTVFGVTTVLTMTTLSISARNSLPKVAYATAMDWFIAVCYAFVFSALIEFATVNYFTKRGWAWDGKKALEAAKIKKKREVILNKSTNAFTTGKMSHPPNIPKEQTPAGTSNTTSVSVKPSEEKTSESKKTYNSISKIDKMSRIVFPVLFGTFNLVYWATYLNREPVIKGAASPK
GABAA/α5 receptors, sequence (P28472 26-473 partner): as the sequence (P28472 26-473 partner) above
GABAA/α5 receptors, sequence (P18507 40-475): as the sequence (P18507 40-475) above

Regarding `C#Cc1ccc2c(c1)C(c1ccccn1)=NCc1c(C(=O)OCC)ncn1-2` [HZ-166, Ethyl-8-ethynyl-6-(pyridin-2-yl)-4H-benzo[f]imidazo[1,5-a][1,4]diazepine-3-carboxylate], in the series with Male CD-1 mice [1], the “effectiveness in MES assay” value was “effective in this assay”. Moreover, the “effect against scMET seizures at 30 mg/kg” value with Male Sprague-Dawley rats [2] (30 mg/kg i.p.) is recorded as “little effect”. In addition, the “protection against scMET-induced seizures” value in the series with Male Sprague-Dawley rats [3] was “giving protection against scMET-induced seizures”. In addition, the “mechanical hyperalgesia in CFA-induced inflammatory pain” value in the series with Sprague Dawley male rats is “dose-dependently attenuated mechanical hyperalgesia”. Also, the “Rat Liver microsome stability (reported in % remaining)” value in [4] was determined as 50 % remaining. For the same compound, in series [5], the “Mouse Liver microsome stability (reported in % remaining)” value is 54 % remaining. Moreover, in series [6], the “Human Liver microsome stability (reported in % remaining)” value is on record as 80 % remaining. The “performance in von Frey filament assay” value with Male Sprague-Dawley rats [7] was “perform well in this assay”. Also, the Tmax in series [8] worked out at 5.58 h. Besides, in series [8] (read-out: Cmax (highest concentration found in blood)), the Cmax was determined as 4.11 ng/mL. Further, the “Dog Liver microsome stability (reported in % remaining)” value in series [9] is 97 % remaining. Also, the “effect on seizure threshold to PTZ” value with Male Sprague-Dawley rats [10] is “little protection”. For the same compound, the “muscle relaxation / motor impairment in inverted screen” value in the series with Male Sprague-Dawley rats [11] is recorded as “Neither HZ-166 nor KRM-II-81 induced significant muscle relaxation”. Besides, in the series with Male Sprague-Dawley rats [11] (i.p., inverted screen), the “dose at which signs of muscle relaxation began to appear” value was determined as 30 mg/kg. In the series with rhesus monkeys, the “effectiveness in conflict procedure” value is on record as “effective in rhesus monkeys”. In the series with Male CD-1 mice [12], the “protection against MES-induced seizures” value is “did not”. For the same compound, in the series on Male NIH Swiss mice, the “doses with no ataxic complications” value was “over 100 mg/kg”.

As for `C#Cc1ccc2c(c1)C(c1ccccc1)=NCC(=O)N2C` [QH-ii-066], the Ki was more than 0.07 µM on GABAA/α1 receptors, less than 0.05 µM on GABAA/α3, less than 0.01 µM at GABAA/α5 receptors and less than 0.05 µM on GABAA/α2.

As to `CN1C(=O)CN=C(c2ccccc2)c2cc(Cl)ccc21` [diazepam, reference compound], in the series with Male Sprague-Dawley rats [2] (i.p. 30 minutes prior), the “dose achieving significant protection against scMET seizures” value is recorded as 10 mg/kg. Further, in the series on Male Sprague-Dawley rats [10], the “effect on seizure threshold to PTZ” value was “significantly increased the seizure threshold to PTZ”. For the same compound, the “muscle relaxation / motor impairment in inverted screen” value in the series with Male Sprague-Dawley rats [11] is “produced full motor impairment”. Further, the “protection against MES-induced seizures” value with Male CD-1 mice [12] is listed as “fully protected against seizure induction”.
